# From US10870647B2, “Imidazopyridine derivative, method for preparing same, and pharmaceutical composition containing same as active ingredient for preventing or treating cancer” (DAEGU-GYEONGBUK MEDICAL INNOVATION FOUNDATION, priority 2016, dated 2020)
# Columns and labels:
# Assay in all cases: Kinase selectivity, scanMAX Kinase assay panel (DiscoverX), % control at 1 uM
# Format in all cases: binding
# [1] = target: T1, scanMAX Kinase assay panel (Homo sapiens, UniProt Q9H4B4); conditions: PLK3; 1 uM; read-out: Percent Control (%)
# T1 construct: purchased DiscoverX
# T1 sequence (Q9H4B4 whole entry): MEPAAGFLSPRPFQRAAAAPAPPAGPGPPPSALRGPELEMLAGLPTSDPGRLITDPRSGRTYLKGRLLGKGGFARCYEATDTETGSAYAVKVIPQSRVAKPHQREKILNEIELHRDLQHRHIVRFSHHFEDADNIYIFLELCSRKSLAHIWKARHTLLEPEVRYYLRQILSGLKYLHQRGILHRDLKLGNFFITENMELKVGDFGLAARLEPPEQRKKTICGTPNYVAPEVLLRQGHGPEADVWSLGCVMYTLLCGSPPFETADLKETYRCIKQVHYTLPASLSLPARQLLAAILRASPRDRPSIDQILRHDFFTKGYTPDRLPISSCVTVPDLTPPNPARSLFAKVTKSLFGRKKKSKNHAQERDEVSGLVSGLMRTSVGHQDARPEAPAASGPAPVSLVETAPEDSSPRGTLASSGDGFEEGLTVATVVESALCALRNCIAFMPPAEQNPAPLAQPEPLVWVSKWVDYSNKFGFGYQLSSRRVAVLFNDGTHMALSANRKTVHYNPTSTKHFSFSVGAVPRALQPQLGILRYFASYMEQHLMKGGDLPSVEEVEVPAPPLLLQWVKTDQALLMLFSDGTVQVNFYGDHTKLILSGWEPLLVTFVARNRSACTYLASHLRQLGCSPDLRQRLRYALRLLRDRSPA
# Outline: (§1)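 Compounds were tested at 1 uM in DMSO against each enzyme in the panel. Percent control was calculated as (compound − positive control)/(negative control − positive control) × 100, and a compound was scored active on a kinase when this value fell below 35.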
# [2] = target: T2, scanMAX Kinase assay panel (Homo sapiens, UniProt Q8NFD2); conditions: ANKK1; 1 uM; read-out: Percent Control (%)
# T2 construct: purchased DiscoverX
# T2 sequence (Q8NFD2 1-765): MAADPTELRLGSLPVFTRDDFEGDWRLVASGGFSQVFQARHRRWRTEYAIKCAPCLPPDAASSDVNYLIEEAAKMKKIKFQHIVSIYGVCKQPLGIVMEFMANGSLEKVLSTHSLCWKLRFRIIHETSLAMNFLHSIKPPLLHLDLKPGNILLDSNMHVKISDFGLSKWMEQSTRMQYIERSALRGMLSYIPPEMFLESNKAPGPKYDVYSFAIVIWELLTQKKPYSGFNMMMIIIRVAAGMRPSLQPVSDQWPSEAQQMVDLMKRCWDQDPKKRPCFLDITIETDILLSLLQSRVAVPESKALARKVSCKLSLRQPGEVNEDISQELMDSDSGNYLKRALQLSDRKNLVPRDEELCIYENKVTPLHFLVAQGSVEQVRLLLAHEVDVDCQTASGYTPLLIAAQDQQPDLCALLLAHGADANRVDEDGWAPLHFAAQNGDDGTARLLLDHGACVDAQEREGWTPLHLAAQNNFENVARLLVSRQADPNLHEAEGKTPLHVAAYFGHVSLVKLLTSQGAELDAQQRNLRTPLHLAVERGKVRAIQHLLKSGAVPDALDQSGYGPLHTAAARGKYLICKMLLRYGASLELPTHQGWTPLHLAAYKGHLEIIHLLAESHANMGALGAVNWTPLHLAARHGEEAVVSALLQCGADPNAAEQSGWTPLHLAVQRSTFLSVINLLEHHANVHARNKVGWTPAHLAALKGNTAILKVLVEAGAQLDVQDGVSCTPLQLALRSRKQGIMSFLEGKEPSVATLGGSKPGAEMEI
# Outline: as §1
# [3] = target: T3, scanMAX Kinase assay panel (Homo sapiens, UniProt Q9H2X6); conditions: HIPK2; 1 uM; read-out: Percent Control (%)
# T3 construct: purchased DiscoverX
# T3 sequence (Q9H2X6 whole entry): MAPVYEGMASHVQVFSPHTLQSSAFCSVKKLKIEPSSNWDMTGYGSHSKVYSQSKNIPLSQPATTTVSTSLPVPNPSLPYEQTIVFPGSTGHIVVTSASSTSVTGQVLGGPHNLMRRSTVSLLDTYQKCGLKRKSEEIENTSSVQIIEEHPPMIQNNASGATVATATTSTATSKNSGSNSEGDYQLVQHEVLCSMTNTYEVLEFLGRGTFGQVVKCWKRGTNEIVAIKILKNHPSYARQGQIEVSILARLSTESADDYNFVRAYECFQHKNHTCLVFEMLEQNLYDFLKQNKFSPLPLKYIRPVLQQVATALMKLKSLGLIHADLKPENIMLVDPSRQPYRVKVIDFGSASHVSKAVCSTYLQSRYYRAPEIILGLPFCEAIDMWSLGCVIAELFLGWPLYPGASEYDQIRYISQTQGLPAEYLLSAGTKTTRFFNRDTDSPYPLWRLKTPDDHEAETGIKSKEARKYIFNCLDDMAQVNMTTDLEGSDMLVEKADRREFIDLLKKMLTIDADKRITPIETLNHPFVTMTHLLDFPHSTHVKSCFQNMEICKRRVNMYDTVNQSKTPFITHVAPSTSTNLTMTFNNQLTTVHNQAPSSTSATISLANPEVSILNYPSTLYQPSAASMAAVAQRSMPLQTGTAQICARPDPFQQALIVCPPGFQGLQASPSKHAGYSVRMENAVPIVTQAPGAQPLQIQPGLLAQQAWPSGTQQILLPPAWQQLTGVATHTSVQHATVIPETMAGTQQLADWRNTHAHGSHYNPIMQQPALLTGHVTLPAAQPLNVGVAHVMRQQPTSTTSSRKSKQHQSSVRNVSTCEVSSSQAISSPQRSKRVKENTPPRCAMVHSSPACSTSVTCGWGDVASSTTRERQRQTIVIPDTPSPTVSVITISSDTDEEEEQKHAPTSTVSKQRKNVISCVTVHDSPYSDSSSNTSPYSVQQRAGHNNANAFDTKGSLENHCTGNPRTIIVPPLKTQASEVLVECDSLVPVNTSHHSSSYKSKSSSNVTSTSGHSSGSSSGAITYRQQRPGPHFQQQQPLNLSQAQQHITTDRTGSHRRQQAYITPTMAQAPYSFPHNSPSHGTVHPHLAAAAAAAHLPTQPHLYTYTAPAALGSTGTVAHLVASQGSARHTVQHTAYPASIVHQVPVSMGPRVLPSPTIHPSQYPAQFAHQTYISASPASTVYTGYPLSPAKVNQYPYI
# Outline: as §1
# [4] = target: T4, scanMAX Kinase assay panel (Homo sapiens, UniProt P15056); conditions: BRAF; 1 uM; read-out: Percent Control (%)
# T4 construct: purchased DiscoverX
# T4 sequence (P15056 whole entry): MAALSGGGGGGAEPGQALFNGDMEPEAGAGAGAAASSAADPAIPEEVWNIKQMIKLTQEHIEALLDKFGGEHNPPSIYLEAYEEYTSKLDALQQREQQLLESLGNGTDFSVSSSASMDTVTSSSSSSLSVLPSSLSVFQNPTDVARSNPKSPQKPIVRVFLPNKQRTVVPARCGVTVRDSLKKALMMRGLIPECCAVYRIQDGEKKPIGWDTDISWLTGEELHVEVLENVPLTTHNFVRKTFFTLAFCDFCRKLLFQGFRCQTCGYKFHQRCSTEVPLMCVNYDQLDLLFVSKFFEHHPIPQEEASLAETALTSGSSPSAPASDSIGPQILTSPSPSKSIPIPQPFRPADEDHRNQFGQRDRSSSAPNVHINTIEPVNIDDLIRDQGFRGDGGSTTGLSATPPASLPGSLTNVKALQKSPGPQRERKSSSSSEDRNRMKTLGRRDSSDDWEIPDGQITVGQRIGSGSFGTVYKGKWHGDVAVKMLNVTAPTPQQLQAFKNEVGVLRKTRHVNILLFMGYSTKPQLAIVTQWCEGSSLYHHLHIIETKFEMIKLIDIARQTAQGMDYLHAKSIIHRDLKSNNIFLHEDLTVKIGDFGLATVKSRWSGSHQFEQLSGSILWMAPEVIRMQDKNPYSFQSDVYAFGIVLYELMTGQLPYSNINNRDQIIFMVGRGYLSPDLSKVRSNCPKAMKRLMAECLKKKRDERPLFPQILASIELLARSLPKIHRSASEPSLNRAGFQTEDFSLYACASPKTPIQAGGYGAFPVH
# Outline: as §1
# [5] = target: T5, scanMAX Kinase assay panel (Homo sapiens, UniProt P36888, D835Y); conditions: FLT3 (D835Y); 1 uM; read-out: Percent Control (%)
# T5 construct: purchased DiscoverX
# T5 sequence (P36888 27-993 D835Y): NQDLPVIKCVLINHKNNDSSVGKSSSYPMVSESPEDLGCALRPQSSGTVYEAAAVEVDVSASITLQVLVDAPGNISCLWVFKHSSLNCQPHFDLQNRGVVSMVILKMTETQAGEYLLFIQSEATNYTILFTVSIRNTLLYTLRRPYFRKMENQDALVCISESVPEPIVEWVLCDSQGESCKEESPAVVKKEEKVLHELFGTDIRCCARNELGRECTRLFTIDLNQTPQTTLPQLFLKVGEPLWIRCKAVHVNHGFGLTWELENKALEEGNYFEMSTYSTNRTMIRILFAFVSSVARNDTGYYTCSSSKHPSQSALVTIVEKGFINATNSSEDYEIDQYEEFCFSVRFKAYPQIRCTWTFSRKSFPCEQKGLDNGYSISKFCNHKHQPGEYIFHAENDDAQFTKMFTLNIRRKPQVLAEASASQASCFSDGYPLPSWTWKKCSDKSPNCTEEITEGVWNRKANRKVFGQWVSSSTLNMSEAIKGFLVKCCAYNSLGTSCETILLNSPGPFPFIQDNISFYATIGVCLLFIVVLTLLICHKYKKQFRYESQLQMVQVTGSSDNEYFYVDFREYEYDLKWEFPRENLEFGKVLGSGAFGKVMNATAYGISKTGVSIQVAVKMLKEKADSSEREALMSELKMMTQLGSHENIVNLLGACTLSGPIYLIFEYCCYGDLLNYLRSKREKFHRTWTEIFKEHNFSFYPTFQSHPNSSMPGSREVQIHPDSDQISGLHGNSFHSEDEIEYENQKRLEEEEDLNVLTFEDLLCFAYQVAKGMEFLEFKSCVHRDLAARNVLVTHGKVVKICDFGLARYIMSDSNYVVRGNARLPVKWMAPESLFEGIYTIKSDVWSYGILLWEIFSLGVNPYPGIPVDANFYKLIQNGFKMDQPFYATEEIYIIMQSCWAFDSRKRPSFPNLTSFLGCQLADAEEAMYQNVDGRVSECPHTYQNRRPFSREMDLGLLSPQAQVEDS
# Outline: as §1
# [6] = target: T6, scanMAX Kinase assay panel (Homo sapiens, UniProt Q9UEE5); conditions: DRAK1; 1 uM; read-out: Percent Control (%)
# T6 construct: purchased DiscoverX
# T6 sequence (Q9UEE5 1-414): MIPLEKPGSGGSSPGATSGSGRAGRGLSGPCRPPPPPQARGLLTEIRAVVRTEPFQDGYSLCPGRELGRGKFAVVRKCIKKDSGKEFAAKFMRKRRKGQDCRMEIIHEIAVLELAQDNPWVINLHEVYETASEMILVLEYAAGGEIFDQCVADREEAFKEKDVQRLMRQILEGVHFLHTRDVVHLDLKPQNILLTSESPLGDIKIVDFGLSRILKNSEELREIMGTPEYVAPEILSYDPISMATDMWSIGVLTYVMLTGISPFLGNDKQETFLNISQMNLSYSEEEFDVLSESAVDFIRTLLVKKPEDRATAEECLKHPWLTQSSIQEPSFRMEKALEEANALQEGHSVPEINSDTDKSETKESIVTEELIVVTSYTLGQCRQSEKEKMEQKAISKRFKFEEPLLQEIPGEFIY
# Outline: as §1
SMILES,remaining binding at 1 µM [1] [%],remaining binding at 1 µM [2] [%],remaining binding at 1 µM [3] [%],remaining binding at 1 µM [4] [%],remaining binding at 1 µM [5] [%],remaining binding at 1 µM [6] [%]
"Cc1ccc(C(=O)Nc2ccc(CN3CCN(C)CC3)c(C(F)(F)F)c2)cc1C#Cc1cnc2c(Nc3cnn(C)c3)cccn12 [Example 1, 4-methyl-3-((8-((1-methyl-1H-pyrazol-4-yl)amino)imidazo[1,2-a]pyridin-3-yl)ethynyl)-N-(4-((4-methylpiperazin-1-yl)methyl)-3-(trifluoromethyl)phenyl)benzamide]",77,4,61,18,5,98
"Cc1cn(-c2cc(NC(=O)c3ccc(C)c(C#Cc4cnc5c(Nc6cnn(C)c6)cccn45)c3)cc(C(F)(F)F)c2)cn1 [Example 12, 4-methyl-N-(3-(4-methyl-1H-imidazol-1-yl)-5-(trifluoromethyl)phenyl)-3-((8-((1-methyl-1H-pyrazol-4-yl)amino)imidazo[1,2-a]pyridin-3-yl)ethynyl)benzamide]",100,100,100,80,14,100
Cc1ccc(NC(=O)C2(C(=O)Nc3ccc(F)cc3)CC2)cc1C#Cc1cnc2c(Nc3cnn(C(C)C)c3)cccn12 [Example 78],92,97,100,100,79,100
